Data published in the RepoRT retention time repository (doi:10.1021/es4044374).

Assay: RP, Waters XBridge C18, 50 × 2.1 mm, 3.5 µm, 30 °C, 0.2 mL/min, estimated dead time 0.55 min; A: water + 0.1% formic acid, pH 3; B: methanol + 0.1% formic acid, pH 3; gradient (min/%B) 0/10 4/50 17/95 25/95 25.1/10 30/10
Details: stereoisomer not certain

SMILES	LC retention time
CC(C)N(C(=O)CCl)c1ccccc1 [Propachlor]	8.6 min
CCCOC(=O)NCCCN(C)C [Propamocarb]	2.4 min
CC(C)=NOCCOC(=O)C(C)Oc1ccc(Oc2cnc3cc(Cl)ccc3n2)cc1 (centres undefined) [Propaquizafop]	15 min
CC(C)Nc1nc(Cl)nc(NC(C)C)n1 [Propazine]	9.9 min
CCCC1COC(Cn2cncn2)(c2ccc(Cl)cc2Cl)O1 (centres undefined) [Propiconazole]	13.1 min
CCCN(CCC)C(=O)SCc1ccccc1 [Prosulfocarb]	14.4 min
CC1=NNC(=O)N(N=Cc2cccnc2)C1 [Pymetrozine]	1.5 min
COC(=O)N(OC)c1ccccc1COc1ccn(-c2ccc(Cl)cc2)n1 [Pyraclostrobin]	13.4 min
Cc1cc(C)nc(Nc2ccccc2)n1 [Pyrimethanil]	7.6 min
CCS(=O)(=O)c1cccnc1S(=O)(=O)NC(=O)Nc1nc(OC)cc(OC)n1 [Rimsulfuron]	7.9 min
O=C(O)C(c1ccccc1)C1CCCCN1 (centres undefined) [Ritalinic acid]	4.7 min
CCNc1nc(NCC)[nH]c(=O)n1 [Simazine-2-hydroxy]	3.5 min
CCNc1nc(Cl)nc(NCC)n1 [Simazine]	6.9 min
CCNc1nc(NCC)nc(OC)n1 [Simeton]	4.9 min
CCCN(CC)CC1COC2(CCC(C(C)(C)C)CC2)O1 (centres undefined) [Spiroxamine]	10.1 min
OCC1OC(OC2(CCl)OC(CCl)C(O)C2O)C(O)C(O)C1Cl (centres undefined) [Sucralose]	4.4 min
CS(=O)(=O)c1ccc(C(=O)C2C(=O)CCCC2=O)c(Cl)c1 [Sulcotrione]	6.8 min
CC(C)(C)C(O)(CCc1ccc(Cl)cc1)Cn1cncn1 (centres undefined) [Tebuconazole]	12.8 min

SMILES	LC retention time
CCc1ccc(C(=O)NN(C(=O)c2cc(C)cc(C)c2)C(C)(C)C)cc1 [Tebufenozide]	12.4 min
CC(C)N(Cc1ccccc1)C(=O)C(C)(C)C [Tebutam]	11.7 min
O=C(NC(=O)c1c(F)cccc1F)Nc1cc(Cl)c(F)c(Cl)c1F [Teflubenzuron]	16.1 min
CCNc1nc(NC(C)(C)C)nc(OC)n1 [Terbumeton]	6.7 min
CCNc1nc(NC(C)(C)C)nc(SC)n1 [Terbutryn]	8.5 min
CCNc1nc(NC(C)(C)C)[nH]c(=O)n1 [Terbutylazine-2-hydroxy]	5.6 min
CC(C)(C)Nc1nc(N)nc(Cl)n1 [Terbutylazine-desethyl]	7.6 min
CCNc1nc(Cl)nc(NC(C)(C)C)n1 [Terbutylazine]	10.1 min
NC(=O)N=C1SCCN1Cc1ccc(Cl)nc1 [Thiacloprid-amide]	4.6 min
N#CN=C1SCCN1Cc1ccc(Cl)nc1 [Thiacloprid]	5.8 min
CN1COCN(Cc2cnc(Cl)s2)C1=N[N+](=O)[O-] [Thiamethoxam]	4.1 min
COC(=O)c1sccc1S(=O)(=O)NC(=O)Nc1nc(C)nc(OC)n1 [Thifensulfuron-methyl]	7.2 min
CCCC(C)C1(CC)C(=O)NC(=S)NC1=O (centres undefined) [Thiopental]	9 min
COc1cccc(C2(O)CCCCC2CN(C)C)c1 (centres undefined) [Tramadol]	4.9 min
O=C(O)COc1nc(Cl)c(Cl)cc1Cl [Triclopyr]	10.3 min
CCCN(CCC)c1c([N+](=O)[O-])cc(C(F)(F)F)cc1[N+](=O)[O-] [Trifluralin]	16.5 min
COc1ccc(C(CN(C)C)C2(O)CCCCC2)cc1 (centres undefined) [Venlafaxine]	6.2 min

Now from value to molecule:

LC retention time	SMILES
6.6 min	CC(C)NCC(O)COc1cccc2ccccc12 (centres undefined) [Propranolol]
3.4 min	Cc1cc(=O)[nH]c(C(C)C)n1 [Pyrimidinol]
2.4 min	CNC(=C[N+](=O)[O-])NCCSCc1ccc(C[N+](C)(C)[O-])o1 [Ranitidine N-oxide]
0.8 min	CNC(=C[N+](=O)[O-])NCCS(=O)Cc1ccc(CN(C)C)o1 (centres undefined) [Ranitidine-S-oxide]
1.9 min	CNC(=C[N+](=O)[O-])NCCSCc1ccc(CN(C)C)o1 [Ranitidine]
8.3 min	COC(=O)C1C2CC3c4[nH]c5cc(OC)ccc5c4CCN3CC2CC(OC(=O)c2cc(OC)c(OC)c(OC)c2)C1OC (centres undefined) [Reserpine]
13.6 min	CC(C)c1nc(CN(C)C(=O)NC(C(=O)NC(Cc2ccccc2)CC(O)C(Cc2ccccc2)NC(=O)OCc2cncs2)C(C)C)cs1 (centres undefined) [Ritonavir]
9.2 min	CC(C)c1nc(N(C)S(C)(=O)=O)nc(-c2ccc(F)cc2)c1C=CC(O)CC(O)CC(=O)O (centres undefined) [Rosuvastatin]
10.1 min	CCC1OC(=O)C(C)C(OC2CC(C)(OC)C(O)C(C)O2)C(C)C(OC2OC(C)CC(N(C)C)C2O)C(C)(O)CC(C)C(=NOCOCCOC)C(C)C(O)C1(C)O (centres undefined) [Roxithromycin]
2.5 min	O=C1NS(=O)(=O)c2ccccc21 [Saccharin]
9.8 min	CCNc1nc(Cl)nc(NC(C)CC)n1 (centres undefined) [Sebuthylazine]
6.7 min	CCNc1nc(NC(C)CC)nc(OC)n1 (centres undefined) [Secbumeton]
16 min	CCC(C)(C)C(=O)OC1CC(C)C=C2C=CC(C)C(CCC3CC(O)CC(=O)O3)C21 (centres undefined) [Simvastatin]
5.2 min	NC(CC(=O)N1CCn2c(nnc2C(F)(F)F)C1)Cc1cc(F)c(F)cc1F (centres undefined) [Sitagliptin]
1.6 min	CC(C)NCC(O)c1ccc(NS(C)(=O)=O)cc1 (centres undefined) [Sotalol]
10.2 min	CC(=O)SC1CC2=CC(=O)CCC2(C)C2CCC3(C)C(CCC34CCC(=O)O4)C12 (centres undefined) [Spironolactone]
2.2 min	Nc1ccc(S(=O)(=O)Nc2ncccn2)cc1 [Sulfadiazine]

LC retention time	SMILES
5.7 min	COc1cc(NS(=O)(=O)c2ccc(N)cc2)nc(OC)n1 [Sulfadimethoxine]
3.9 min	Cc1cc(C)nc(NS(=O)(=O)c2ccc(N)cc2)n1 [Sulfamethazine]
4.6 min	Cc1cc(NS(=O)(=O)c2ccc(N)cc2)no1 [Sulfamethoxazole]
0.9 min	Nc1ccc(S(=O)(=O)O)cc1 [Sulfanilic acid]
2.9 min	Nc1ccc(S(=O)(=O)Nc2ccccn2)cc1 [Sulfapyridine]
2.8 min	Nc1ccc(S(=O)(=O)Nc2nccs2)cc1 [Sulfathiazole]
9.2 min	CCCc1nc2c(C)cc(-c3nc4ccccc4n3C)cc2n1Cc1ccc(-c2ccccc2C(=O)O)cc1 [Telmisartan]
2.9 min	CC(C)(C)Nc1nc(N)[nH]c(=O)n1 [Terbutylazine-desethyl-2-hydroxy]
14.8 min	O=C(Nc1ccc(Cl)cc1)Nc1ccc(Cl)c(Cl)c1 [Triclocarban]
3.8 min	COc1cc(Cc2cnc(N)nc2N)cc(OC)c1OC [Trimethoprim]
8.7 min	CC(CN(C)C)CN1c2ccccc2CCc2ccccc21 (centres undefined) [Trimipramine]
8.9 min	CCOC(=O)C1CC(=O)C(=C(O)C2CC2)C(=O)C1 (centres undefined) [Trinexapac-ethyl]
6.9 min	O=C1CC(C(=O)O)CC(=O)C1=C(O)C1CC1 (centres undefined) [Trinexapac]
10.8 min	COc1nc(NC(=O)NS(=O)(=O)c2ccccc2C(F)(F)F)nc(C(F)(F)F)n1 [Tritosulfuron]
8.1 min	CCC1OC(=O)CC(O)C(C)C(OC2OC(C)C(OC3CC(C)(O)C(O)C(C)O3)C(N(C)C)C2O)C(CC=O)CC(C)C(=O)C=CC(C)=CC1COC1OC(C)C(O)C(OC)C1OC (centres undefined) [Tylosin]
11.2 min	CCCCC(=O)N(Cc1ccc(-c2ccccc2-c2nn[nH]n2)cc1)C(C(=O)O)C(C)C (centres undefined) [Valsartan]
7.3 min	COc1ccc(CCN(C)CCCC(C#N)(c2ccc(OC)c(OC)c2)C(C)C)cc1OC (centres undefined) [Verapamil]
